In PubChem BioAssay (NCI):
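A five-concentration, 48-hour dose response in 96-well plates underlies each endpoint, interpolated linearly between surrounding concentrations. GI50 marks 50% less growth. The concentration for full growth arrest is given as TGI.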

Legend:
Experiment in all cases: DTP human tumour cell line panel, 48 h
M14 melanoma = test system: M14 melanoma
MOLT-4 leukemia = test system: MOLT-4 leukemia
SK-MEL-5 melanoma = test system: SK-MEL-5 melanoma
SR leukemia = test system: SR leukemia
PC-3 prostate = test system: PC-3 prostate
A549 NSCLC = test system: A549 NSCLC
HCT-15 colon = test system: HCT-15 colon
SNB-75 CNS = test system: SNB-75 CNS
KM12 colon = test system: KM12 colon
K-562 leukemia = test system: K-562 leukemia

SMILES | GI50 (M14 melanoma) | TGI (M14 melanoma) | GI50 (MOLT-4 leukemia) | TGI (MOLT-4 leukemia) | GI50 (SK-MEL-5 melanoma) | TGI (SK-MEL-5 melanoma) | GI50 (SR leukemia) | TGI (SR leukemia) | GI50 (PC-3 prostate) | TGI (PC-3 prostate) | GI50 (A549 NSCLC) | TGI (A549 NSCLC) | GI50 (HCT-15 colon) | TGI (HCT-15 colon) | GI50 (SNB-75 CNS) | TGI (SNB-75 CNS) | GI50 (KM12 colon) | TGI (KM12 colon) | GI50 (K-562 leukemia) | TGI (K-562 leukemia)
CCCNC(=S)N/N=C(\C)c1ccccn1 | 0.0681 µM | 3.65 µM | 0.0524 µM | 0.816 µM | 0.213 µM | 2.55 µM | 0.0517 µM | 4.37 µM | 0.0471 µM | > 100 µM | 0.447 µM | > 100 µM | 0.0514 µM | > 100 µM | 1.5 µM | > 25.7 µM | 0.426 µM | > 100 µM | 0.0153 µM | > 100 µM
COc1ccc(OC)c(/C=C/NC=O)c1 | – | > 100 µM | – | > 100 µM | – | > 100 µM | – | > 31.6 µM | – | > 100 µM | – | > 100 µM | – | > 100 µM | – | > 100 µM | – | > 100 µM | – | > 100 µM
COc1ccc(S(=O)(=O)N(Cc2ccc3c(n2)C=CC(C)(C)O3)C2CCC2)cc1OC | < 0.01 µM | 0.228 µM | < 0.01 µM | 0.0355 µM | < 0.01 µM | 0.0376 µM | < 0.01 µM | 0.0324 µM | < 0.01 µM | 2.37 µM | 0.0233 µM | 1.66 µM | 0.0154 µM | > 33.6 µM | < 0.01 µM | 0.238 µM | < 0.01 µM | > 37.7 µM | < 0.01 µM | > 100 µM
COC(=O)[C@]12CCC(C)(C)C[C@H]1C1=CC[C@@H]3[C@@]4(C)C/C(=C/c5cccnc5)C(=O)C(C)(C)[C@@H]4CC[C@@]3(C)[C@]1(C)CC2 | 3.63 µM | 13.4 µM | 2.12 µM | 6.17 µM | 5.58 µM | 17.9 µM | 4.52 µM | 93.6 µM | 2.37 µM | 10.4 µM | 11.9 µM | > 100 µM | 4.58 µM | 30.5 µM | 17.6 µM | 48.5 µM | 5.06 µM | 19.9 µM | 3.2 µM | > 100 µM
O=C(CCCSc1nc(-c2ccc(Cl)cc2)cc(-c2ccc(Cl)cc2)n1)NO | – | – | 0.76 µM | > 100 µM | 1.86 µM | 4.06 µM | 0.339 µM | 13 µM | 1.21 µM | 16.1 µM | 1.59 µM | 12.4 µM | 0.385 µM | 11.9 µM | 2.1 µM | 12 µM | 1.96 µM | 11.3 µM | 0.727 µM | > 100 µM
COc1cccc(NCc2nnc(Nc3ccc(Cl)cc3)c3ccccc23)c1 | 0.85 µM | 4.69 µM | 1.1 µM | 7.57 µM | 0.819 µM | 4.18 µM | 0.979 µM | 8.85 µM | 1.19 µM | 9.33 µM | 1.93 µM | 9.42 µM | 1.78 µM | 7.56 µM | 0.293 µM | 5.27 µM | 0.131 µM | 6.52 µM | 1.49 µM | 13.1 µM
COc1cc([N+](=O)[O-])ccc1NC(=O)C(F)(F)F | – | > 100 µM | – | > 100 µM | – | > 100 µM | – | > 100 µM | – | > 100 µM | – | > 100 µM | – | > 100 µM | – | > 100 µM | – | > 100 µM | – | > 100 µM
CC[C@H](C)[C@H](NC(=O)[C@H]1CCCCN1C)C(=O)N(C)[C@H](CCc1nc(C(=O)N[C@@H](Cc2ccccc2)C[C@H](C)C(=O)OC)cs1)C(C)C | 0.215 µM | – | 0.727 µM | > 25 µM | 0.0745 µM | 1.02 µM | 0.0726 µM | 10.8 µM | 0.375 µM | > 25 µM | 1.1 µM | > 25 µM | 0.712 µM | > 25 µM | 0.276 µM | 7.65 µM | 0.261 µM | > 25 µM | 0.121 µM | > 25 µM
CC(=O)[O][Hg][c]1c(C)c(C)c(C)c(C)c1C | 1.35 µM | 2.65 µM | 0.223 µM | 1.11 µM | 1.38 µM | 2.74 µM | 0.127 µM | – | 2 µM | 5.68 µM | 10.7 µM | 27.8 µM | 1.38 µM | 2.93 µM | 1.75 µM | 3.33 µM | 4.06 µM | 15.3 µM | 0.468 µM | 2.63 µM
COc1cc(Cn2c(-c3ccccc3)cc3c2-c2oncc2CC3)cc(OC)c1OC | 0.468 µM | 13.4 µM | 0.976 µM | > 100 µM | 0.882 µM | 16.8 µM | 0.42 µM | 43.2 µM | 3.62 µM | > 100 µM | 1.15 µM | > 100 µM | 0.64 µM | > 100 µM | 0.453 µM | 3.99 µM | 0.585 µM | 22.8 µM | 0.364 µM | > 100 µM
O=C(O)C(Sc1ccc(Cl)cc1)Sc1ccc(Cl)cc1 | – | > 100 µM | – | > 100 µM | – | > 100 µM | – | > 100 µM | – | > 100 µM | – | > 100 µM | – | > 100 µM | – | > 100 µM | – | > 100 µM | – | > 100 µM
CNC1C(=O)C(C)C(O)(C(CC(C)C(O)/C=C/C=C/CNC(=O)C(C)(C)C(O)\C(C)=C/C=C\C=C\Cc2cnc(C)o2)OC)C12C(=O)OC2COC (stereo not given) (tested in a mixture with another compound) | – | 27 µM | – | 35.8 µM | – | 18.4 µM | – | 48.1 µM | – | 63.5 µM | – | > 100 µM | – | > 63.1 µM | – | 30.6 µM | – | 26.1 µM | – | 5.42 µM
COc1ccc(-c2cc3c(nn2)-c2ccccc2C3=O)cc1 | > 100 µM | > 100 µM | 32.8 µM | > 100 µM | > 100 µM | > 100 µM | 14.7 µM | > 100 µM | > 100 µM | > 100 µM | > 100 µM | > 100 µM | > 100 µM | > 100 µM | > 100 µM | > 100 µM | 47.7 µM | > 100 µM | > 100 µM | > 100 µM
COc1ccc(C2CC(=O)c3c(OC)cc(OC)cc3O2)cc1 (stereo not given) | – | – | > 100 µM | > 100 µM | > 100 µM | > 100 µM | > 100 µM | > 100 µM | > 100 µM | > 100 µM | > 100 µM | > 100 µM | > 100 µM | > 100 µM | > 100 µM | > 100 µM | > 100 µM | > 100 µM | > 100 µM | > 100 µM
COc1cc2c3c(n(CCCBr)c(=O)c2cc1OC)-c1ccc(NC(C)=O)cc1C3=O | 4.33 µM | 20.6 µM | – | – | 2.45 µM | 13.7 µM | 0.574 µM | 12.6 µM | 24.8 µM | > 100 µM | 25.4 µM | > 100 µM | 30.8 µM | > 100 µM | 12.1 µM | 54 µM | 7.35 µM | > 100 µM | 3.84 µM | 28.3 µM
CC(C)(C)OC(=O)N(CCCN(CCn1c2c(c3ccccc3c1=O)C(=O)c1ccccc1-2)C(=O)OC(C)(C)C)CCn1c2c(c3ccccc3c1=O)C(=O)c1ccccc1-2 | > 50 µM | > 50 µM | 6.46 µM | 16 µM | > 50 µM | > 50 µM | 2.07 µM | 8.87 µM | > 50 µM | > 50 µM | > 50 µM | > 50 µM | 31.1 µM | > 50 µM | – | – | > 50 µM | > 50 µM | 12.4 µM | 46 µM
Cc1c2c(nn1-c1ccc(S(=O)(=O)/N=C3\SCC(=O)N3C(=O)c3ccccc3)cc1)-c1ccccc1CC2 | 22.9 µM | 47.1 µM | > 100 µM | > 100 µM | 25.1 µM | 48.9 µM | 69.9 µM | > 100 µM | 42.1 µM | > 100 µM | > 100 µM | > 100 µM | 22.4 µM | 49.5 µM | – | – | 51.4 µM | > 100 µM | 79.2 µM | > 100 µM
NCCCCn1c2c(c3ccccc3c1=O)C(=O)c1ccccc1-2 | 0.417 µM | 1.86 µM | – | – | 0.153 µM | 1.25 µM | – | 0.0486 µM | 0.193 µM | 2.16 µM | 0.0263 µM | 0.361 µM | 0.0582 µM | 0.412 µM | 0.372 µM | 2.37 µM | 0.188 µM | 0.678 µM | 0.168 µM | –
C[C@]12CC[C@@H]3c4ccc(O)cc4C[C@@H](CCCCCCCCCS(=O)CCCC(F)(F)C(F)(F)F)[C@H]3[C@@H]1CC[C@@H]2O (stereo not given in full) | > 100 µM | > 100 µM | > 100 µM | > 100 µM | > 100 µM | > 100 µM | > 100 µM | > 100 µM | > 100 µM | > 100 µM | > 69.9 µM | > 100 µM | > 100 µM | > 100 µM | > 100 µM | > 100 µM | > 100 µM | > 100 µM | – | –
COc1ccc(C(=O)/C=C/c2cccnc2Nc2cc(OC)c(OC)c(OC)c2)cc1 | 2.55 µM | 11.9 µM | 2.26 µM | 7.64 µM | 2.2 µM | 10.6 µM | 0.0949 µM | 2.43 µM | 1.53 µM | 10.1 µM | 1.67 µM | 18.5 µM | 0.884 µM | 3.86 µM | 3.4 µM | 17.6 µM | 0.53 µM | 2.79 µM | – | –
